Data on five molecules can be found in patent publication US20050256051A1, “Nuclear receptor-mediated introduction of a PNA into cell nuclei” (The Population Council, Inc., priority 2001, published 2005).

In series [1] the test system is c-myc gene. As to the kind of experiment: MYC protein by Western blot normalized to H2b, LNCaP cells. Type of series: cell-based, human. As to conditions: for change in MYC: 2 μM, preliminary experiments. Here is the method:
(§1) Total cellular proteins samples were derived from 10^7 cells solubilized in 200 μl Urea lysis buffer (9M Urea, 50 mM Tris, pH 7.0) with brief sonication at 0° C. as needed. Western blot analysis for MYC expression was performed as described previously (29). Briefly, total cellular proteins were electrophoretically separated using 10% acrylamide, 0.4% (w/v) SDS gels and then transferred to a nitrocellulose membrane (Hybond C-extra, Amersham). The membrane was then cut at a […] molecular weight level (using as reference Kaleidoscope pre-stained standards, BioRad). Both membrane halves were incubated in parallel overnight with a primary antibody (top with anti-myc antibody, 9E10 Calbiochem, San Diego, Calif.; bottom with anti-H2b antibody kindly provided by Dr. M. Romani, IST, Genova, I). The membranes were washed and exposed to a rabbit anti-mouse IgG (Dakopatts, Glostrup, DK) at room temperature for 1 h. MYC and H2b bands were visualized by the incubation of the membrane with alkaline phosphatase-conjugated goat anti-rabbit IgG (Sigma) at room temperature for 2 h followed by exposure to the 5-bromo-4-chloro-3-indolylphosphate/nitro blue tetrazolium substrate developer (BCIP/NBT, Sigma).
(§2) The stained and reassembled Western blot images, from triplicate experiments, were digitally acquired, elaborated in Photoshop, and then quantified using Scion-Image. MYC concentrations were normalized to the matching histone H2b concentrations (a protein that remains constant throughout the treatment described). Therefore MYC concentration is reported as a ratio to an H2b standard. For Western blot analyses, the average error was 14.0% (range 8.3 to 25.1%) in the LNCaP experiments and for those with DU145 averaged 10.2% (range 8.5 to 20.3%).
As shown in Fugure 4A, the amount of MYC protein was evaluated by Western blot analysis of […]. The effects of PNAs on expression of the c-myc gene in LNCaP and DU145 cells were also obtained by immunochemical measurement of the MYC protein content of cell lysates, using data obtained from at least a triplicate run of each set of immunostained Western blots. In each case, the MYC content of the whole cell lysate was compared to that of histone H2b, a protein that remains constant throughout the treatment described. The constancy of H2b made it possible to represent variations in MYC protein concentration normalized to the H2b content in the same lysate.
A general note: In western blotting, separated proteins are transferred to a membrane and probed.

Series [2] deals with c-myc gene. Briefly: MYC protein by Western blot normalized to H2b, DU145 cells. Type of series: cell-based, human. As to conditions: 10 μM. As to the method:
as §1, §2
As shown in Fugure 4A, the amount of MYC protein was evaluated by Western blot analysis of total nuclear proteins. […]

Series [3] relates to LNCaP cells. Briefly: Cell growth by total cell counts, LNCaP cells. Type of series: cell-based, human. The following applies: 10 μM, 72 hours. Here is the method:
(§3) Two prostatic carcinoma derived cell lines were used (LNCaP and DU145 cultured in RPMI-1640, 10% charcoal-stripped fetal calf serum). Their features and culture conditions were as previously detailed (26, 27). PNA stock solutions (500 μM in H2O neutralized with NaOH) were added as an aliquot to the culture medium to their final concentration. […] In the gene regulation experiments, PNAmycwt, PNAmycwt-T, PNAmycmut-T, and PNAmycwt-NLS were present at a final 10 μM concentration in the culture medium, for 0, 24, 48, or 72 hours. Cell growth was measured by total cell counts from three replicate flasks (1.3-5.0×10^6 per each 75 cm^2/flask) while cell viability was determined by Trypan blue exclusion. The standard deviation was calculated both for cell growth and viability keeping into account the data from all the experiments (minimum of three each).
(§4) LNCaP and DU145 cells were treated with a 10 μM concentration of PNA constructs in the culture medium (PNA-mycwt-T (Δ), PNA-mycwt, PNA-mycmut, PNA-mycmut-T (●) as negative controls and PNA-mycwt-NLS (▪) as positive control). Cell numbers (FIGS. 3A and C) and viability (FIGS. 3B and D) were estimated, as described above, at increasing times of exposure to different PNA constructs.

Series [4] has as its system LNCaP cells. Briefly: Cell viability by Trypan blue exclusion, LNCaP cells. As to the method: as §3, §4
Series [5] in a line: Solubility of PNA constructs in culture medium and stock solution. Type of series: physicochemical. The following applies: cell culture medium (RPMI complete medium); higher concentrations precipitate; read-out: maximum solubility in RPMI complete medium. Here is the method: Table 1 contains a description of the experimental PNAs used in this study, including their modifications and corresponding abbreviations. In particular, PNA-mycwt is a 17-mer PNA anti-gene for the unique sequence of c-myc, bases 4528-4544, in its II exon (21). […] All the other PNAs listed in Table 1 had solubilities in excess of 500 μM (stock solution described above), far above the 10 μM concentration used in most experiments.

The test system of series [6] is DU145 cells. Briefly: Cell growth by total cell counts, DU145 cells. The following applies: 10 μM, 72 h. Type of series: cell-based, human. Here is the method: as §3, §4
A further series concerns Burkitt's lymphoma cells. The following applies: 10 μM in the cell medium; cited from earlier work.
The test system of series [7] is DU145 cells. As to the kind of experiment: Cell viability by Trypan blue exclusion, DU145 cells. Type of series: cell-based, human. As to conditions: 10 μM, up to 72 h, compared with the about 20% decline seen in LNCaP. Here is the method: as §3, §4

Consider “PNA-mycwt: 17-mer c-myc anti-gene PNA, TCA ACG TTA GCT TCA CC (SEQ ID NO:1), vector-free (TCAACGTTAGCTTCACC; all peptide nucleic acid (PNA); further chemistry not fully specified)”, for which the “effect on MYC protein / expression” value is “unchanged” in the series with c-myc gene [1] (10 μM) and “unaltered” in the series with c-myc gene [2].

Consider “PNA-mycwt-T: c-myc anti-gene PNA (SEQ ID NO:1) linked to dihydrotestosterone at N-terminal (TCAACGTTAGCTTCACC; all peptide nucleic acid (PNA); dihydrotestosterone conjugated at PNA N-terminus)”, for which the “effect on MYC protein / expression” value is “significant and persistent decrease” in the series on c-myc gene [1] (10 μM); “unaltered” in the series on c-myc gene [2]. Also, the “change in MYC content” value in the series with c-myc gene [1] (10 μM, 24 h) was −63%; in the series on c-myc gene [1] (10 μM, 48 hours), −50%; in the series with c-myc gene [1] (10 μM, 72 hours) it was −42%. In addition, the cell growth with LNCaP cells [3] is given as 34 % of control. Besides, the “decline in cell viability” value with LNCaP cells [4] (LNCaP cells, 10 μM, 72 h) was “about 20%”.

As usually defined, the solubility is the concentration that dissolves in the medium under given conditions. `CCN(CC)c1ccc2c(-c3ccccc3C(=O)NCCCC[C@H](NC(=O)COCCOCCNC(=O)CN(CCNC(=O)CN(CCNC(=O)CN(CCNC(=O)CN(CCNC(=O)CN(CCNC(=O)CN(CCNC(=O)CN(CCNC(=O)CN(CCNC(=O)CN(CCNC(=O)CN(CCNC(=O)CN(CCNC(=O)CN(CCNC(=O)CN(CCNC(=O)CN(CCNC(=O)CN(CCNC(=O)CN(CCNC(=O)CN(CCN)C(=O)Cn3cc(C)c(=O)[nH]c3=O)C(=O)Cn3ccc(N)nc3=O)C(=O)Cn3cnc4c(N)ncnc43)C(=O)Cn3cnc4c(N)ncnc43)C(=O)Cn3ccc(N)nc3=O)C(=O)Cn3cnc4c(=O)[nH]c(N)nc43)C(=O)Cn3cc(C)c(=O)[nH]c3=O)C(=O)Cn3cc(C)c(=O)[nH]c3=O)C(=O)Cn3cnc4c(N)ncnc43)C(=O)Cn3cnc4c(=O)[nH]c(N)nc43)C(=O)Cn3ccc(N)nc3=O)C(=O)Cn3cc(C)c(=O)[nH]c3=O)C(=O)Cn3cc(C)c(=O)[nH]c3=O)C(=O)Cn3ccc(N)nc3=O)C(=O)Cn3cnc4c(N)ncnc43)C(=O)Cn3ccc(N)nc3=O)C(=O)Cn3ccc(N)nc3=O)C(=O)NCC(N)=O)c3ccc(=[N+](CC)CC)cc-3oc2c1` [PNA-mycwt-R]: the solubility in series [5] amounted to 2 µM.

As for “PNA-mycwt-NLS: c-myc anti-gene PNA (SEQ ID NO:1) linked to SV40 Nuclear Localization Signal peptide PKKKRKV; positive control (TCAACGTTAGCTTCACC; all peptide nucleic acid (PNA); further chemistry not fully specified) [reference compound]”, in the series with DU145 cells [6], the “inhibition of cell growth” value is 36%. Moreover, in the series with Burkitt's lymphoma cells, the cell viability result is “small decrease” and the “inhibition of MYC expression” value is given as “maximum inhibition”. Moreover, the “decrease in MYC content” value in the series on c-myc gene [1] (10 μM, 72 h, linear decrease) worked out at 52%. In the series on c-myc gene [2] (72 hours, linear inhibition), the “inhibition of MYC” value was “about 65%”. In the series with LNCaP cells [3], the cell growth is 34 % of control. In addition, the “decline in cell viability” value with LNCaP cells [4] (10 µM) is recorded as “about 20%”. In addition, in the series with DU145 cells [7], the “effect on cell viability” value is “same magnitude and timing”.

As to `CCN(CC)c1ccc2c(-c3ccccc3C(=O)NCCCC[C@H](NC(=O)COCCOCCNC(=O)CN(CCNC(=O)CN(CCNC(=O)CN(CCNC(=O)CN(CCNC(=O)CN(CCNC(=O)CN(CCNC(=O)CN(CCNC(=O)CN(CCNC(=O)CN(CCNC(=O)CN(CCNC(=O)CN(CCNC(=O)CN(CCNC(=O)CN(CCNC(=O)CN(CCNC(=O)CN(CCNC(=O)CN(CCNC(=O)CN(CCNC(=O)COCCOCCNC(=O)CCC(=O)O[C@H]3CC[C@H]4[C@@H]5CC[C@H]6CC(=O)CC[C@]6(C)[C@H]5CC[C@]34C)C(=O)Cn3cc(C)c(=O)[nH]c3=O)C(=O)Cn3ccc(N)nc3=O)C(=O)Cn3cnc4c(N)ncnc43)C(=O)Cn3cnc4c(N)ncnc43)C(=O)Cn3ccc(N)nc3=O)C(=O)Cn3cnc4c(=O)[nH]c(N)nc43)C(=O)Cn3cc(C)c(=O)[nH]c3=O)C(=O)Cn3cc(C)c(=O)[nH]c3=O)C(=O)Cn3cnc4c(N)ncnc43)C(=O)Cn3cnc4c(=O)[nH]c(N)nc43)C(=O)Cn3ccc(N)nc3=O)C(=O)Cn3cc(C)c(=O)[nH]c3=O)C(=O)Cn3cc(C)c(=O)[nH]c3=O)C(=O)Cn3ccc(N)nc3=O)C(=O)Cn3cnc4c(N)ncnc43)C(=O)Cn3ccc(N)nc3=O)C(=O)Cn3ccc(N)nc3=O)C(=O)NCC(N)=O)c3ccc(=[N+](CC)CC)cc-3oc2c1` [PNA-mycwt-TR], the solubility in series [5] is 2 µM. Also, the entries for the “change in MYC” value in the series on c-myc gene [1] (24 hours), with c-myc gene [1] (48 h) and with c-myc gene [1] (72 h) were −20%, −30% and −30%, respectively.
